Patent US20210302459A1, “Biosensor Storage Methods” (Queen's University at Kingston, priority 2020, published 2021)

Assays:
Format in all cases: binding
[1] = target: T1, TLR2/6 biosensor (TLR2 and TLR6 proteins immobilized on gold electrode) (Mus musculus, UniProt Q9EPW9+Q9QUN7); assay: Electrochemical impedance response (ΔRct %) of freshly prepared TLR2/6 biosensors to isolated PAMPs
T1 construct: Fc (fusion partner, Fc chimera); purchased R&D Systems Inc. 1530-TR-050 (TLR2); 1533-TR-050 (TLR6)
T1 sequence (Q9QUN7 with tags, fused parts or gaps limits assumed): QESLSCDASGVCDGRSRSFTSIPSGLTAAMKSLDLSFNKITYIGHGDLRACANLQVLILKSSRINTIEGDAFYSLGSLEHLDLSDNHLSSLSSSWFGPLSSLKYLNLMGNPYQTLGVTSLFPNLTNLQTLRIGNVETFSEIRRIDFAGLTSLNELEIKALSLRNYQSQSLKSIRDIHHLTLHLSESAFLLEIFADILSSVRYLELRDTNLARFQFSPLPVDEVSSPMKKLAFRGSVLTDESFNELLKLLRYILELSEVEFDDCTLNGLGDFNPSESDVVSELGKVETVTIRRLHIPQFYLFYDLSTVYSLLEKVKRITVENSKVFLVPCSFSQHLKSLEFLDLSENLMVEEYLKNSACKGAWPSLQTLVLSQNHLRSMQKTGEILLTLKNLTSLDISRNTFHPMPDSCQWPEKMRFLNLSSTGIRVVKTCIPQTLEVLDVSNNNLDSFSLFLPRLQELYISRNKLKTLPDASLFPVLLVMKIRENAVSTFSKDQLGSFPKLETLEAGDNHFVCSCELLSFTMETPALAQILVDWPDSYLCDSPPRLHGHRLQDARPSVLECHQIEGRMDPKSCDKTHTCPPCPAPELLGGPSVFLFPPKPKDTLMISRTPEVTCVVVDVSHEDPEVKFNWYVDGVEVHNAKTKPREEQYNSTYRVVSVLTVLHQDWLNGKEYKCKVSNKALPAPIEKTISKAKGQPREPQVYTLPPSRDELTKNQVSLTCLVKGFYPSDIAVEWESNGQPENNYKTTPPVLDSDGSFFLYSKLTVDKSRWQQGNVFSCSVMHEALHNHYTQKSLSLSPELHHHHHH
T1 sequence (Q9EPW9 with tags, fused parts or gaps limits assumed): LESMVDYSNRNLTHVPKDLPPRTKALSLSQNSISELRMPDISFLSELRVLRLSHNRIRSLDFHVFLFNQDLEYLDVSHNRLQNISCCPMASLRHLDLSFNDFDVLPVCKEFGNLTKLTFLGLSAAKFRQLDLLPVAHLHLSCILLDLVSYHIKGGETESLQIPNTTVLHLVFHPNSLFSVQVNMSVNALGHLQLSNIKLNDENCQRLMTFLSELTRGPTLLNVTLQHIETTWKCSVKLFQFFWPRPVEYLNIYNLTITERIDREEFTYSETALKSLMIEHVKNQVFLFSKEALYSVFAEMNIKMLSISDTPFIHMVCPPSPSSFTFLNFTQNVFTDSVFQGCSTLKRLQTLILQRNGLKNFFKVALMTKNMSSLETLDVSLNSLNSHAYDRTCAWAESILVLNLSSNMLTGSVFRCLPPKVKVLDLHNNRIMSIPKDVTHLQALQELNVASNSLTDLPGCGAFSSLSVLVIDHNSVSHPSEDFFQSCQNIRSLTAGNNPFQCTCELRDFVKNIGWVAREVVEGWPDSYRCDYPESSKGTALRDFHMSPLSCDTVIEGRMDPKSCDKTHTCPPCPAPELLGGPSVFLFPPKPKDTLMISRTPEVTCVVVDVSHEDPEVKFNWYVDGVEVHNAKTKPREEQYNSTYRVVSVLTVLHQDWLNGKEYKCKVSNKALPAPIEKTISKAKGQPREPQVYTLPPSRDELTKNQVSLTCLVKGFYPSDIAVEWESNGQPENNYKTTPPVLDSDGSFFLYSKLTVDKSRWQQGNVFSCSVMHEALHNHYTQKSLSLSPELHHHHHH
Experimental: As shown in FIGS. 1A-B, a TLR2/6 biosensor was prepared following the steps as shown. Specifically, TLR biosensors were prepared using DropSens gold screen printed electrode (SPE). 1-lipoic acid n-hydroxysuccinimide ester (LPA, a linker molecule) was synthesized following a published protocol (see Howarth, M., et al., Nat. Methods, 2008, 5, 397-399). LPA solution at a concentration of 2 mM was prepared using ethanol/MQ water (volume ratio of 1:1). A clean plastic petri dish was lined with a filter paper which was dampened with a 1:1 solution of ethanol and MQ. The DropSens SPE was placed on the filter paper and 50 μL of the 2 mM LPA solution was dropped onto the working electrode. The petri dish was sealed with parafilm and placed in a fridge at 277 K for 24 hours. An additional 50 μL of the 2 mM LPA solution was cast onto a working electrode and returned to the fridge for another 24 hours. After a total of 48 hours the SPE was rinsed thoroughly with ethanol and MQ water before blown dry with nitrogen. TLR2 and TLR6 proteins were individually reconstituted into solutions at a concentration of 200 μg/mL using PBS buffer (pH ˜7.4). The TLR2/6 protein mixture was prepared by mixing 100 μL of TLR2 and 100 μL of TLR6 and mixing on a vortex machine for 30 seconds in a 1.5 mL microcentrifuge tube. The SPEs were placed in petri dishes with filter papers dampened with PBS buffer (pH ˜7.4). A small drop of TLR 2/6 mixture (5 μL) was dispensed onto each working electrode and then the petri dishes were sealed with PARAFILM™ and left in the fridge at 277 K for 72 hours. The electrodes were rinsed with MQ water after the immersion and blown dry with nitrogen. An ethanolamine-tris buffer solution was prepared by dissolving 1.2 g of ethanolamine, 0.121 g tris base in 20 mL of MQ water. The pH of the solution was adjusted to 8.4 using concentrated hydrochloric acid. After the step of immobilizing TLR2/6 proteins, electrode surfaces were immersed in ethanolamine solutions for 1 hour to deactivate unreacted ester groups on the LPA monolayer.
All electrochemical measurements were preformed in faraday cages using DRP-CAC adapters for SPEs being measured. Cyclic voltammetry (CV), square wave voltammetry (SWV), and electrochemical impedance spectroscopy (EIS) measurements were completed using CHI6055E potentiostats (CH Instruments of Austin, Tex., USA). […] The experimental EIS curves were evaluated to determine the film resistance using ZSimpWin 2.0 software (available from AMETEK® Scientific Instruments of Berwyn, Pa., USA). […]
(§1) Sensor responses to different concentrations of Pam2CSK4, a gram-positive PAMP, were evaluated. […] Reduction in measured current correlated to the binding of Pam2CSK4 onto the TLR2/6 biosensor. […]

[2] = target: T1, TLR2/6 biosensor (TLR2 and TLR6 proteins immobilized on gold electrode); assay: Cyclic voltammetry peak current of TLR2/6 biosensors after exposure to analyte; conditions: concentration increased 0.1 to 50.0 μM; reduced from 147 μA
Experimental: As shown in FIGS. 1A-B, a TLR2/6 biosensor was prepared following the steps as shown. Specifically, TLR biosensors were prepared using DropSens gold screen printed electrode (SPE). 1-lipoic acid n-hydroxysuccinimide ester (LPA, a linker molecule) was synthesized following a published protocol (see Howarth, M., et al., Nat. Methods, 2008, 5, 397-399). LPA solution at a concentration of 2 mM was prepared using ethanol/MQ water (volume ratio of 1:1). A clean plastic petri dish was lined with a filter paper which was dampened with a 1:1 solution of ethanol and MQ. The DropSens SPE was placed on the filter paper and 50 μL of the 2 mM LPA solution was dropped onto the working electrode. The petri dish was sealed with parafilm and placed in a fridge at 277 K for 24 hours. An additional 50 μL of the 2 mM LPA solution was cast onto a working electrode and returned to the fridge for another 24 hours. […]
All electrochemical measurements were preformed in faraday cages using DRP-CAC adapters for SPEs being measured. […] The experimental EIS curves were evaluated to determine the film resistance using ZSimpWin 2.0 software (available from AMETEK® Scientific Instruments of Berwyn, Pa., USA). […]
as §1

[3] = target: T1, TLR2/6 biosensor (TLR2 and TLR6 proteins immobilized on gold electrode); assay: Response of TLR2/6 biosensors to Pam2CSK4 after 2 weeks storage under different conditions; conditions: for detection response / activity in comparison to control: 50 μM Pam2CSK4; for activity in comparison to control: −33° C.
Experimental: Referring to FIGS. 2A-C, plots are shown that provide detection responses obtained from TLR2/6 biosensors in the presence of Pam2CSK4 with no storage, and with storage under different conditions for 2 weeks (see Example 5 for details). Columns labelled ‘A’ in FIGS. 2A-C correspond to detection responses of fresh (i.e., not stored) TLR2/6 biosensors to different concentrations of Pam2CSK4. Responses of TLR2/TLR6 biosensors stored in PBS buffer at −80° C. (see columns labelled ‘E’ in FIGS. 2A-2C) for two weeks to Pam2CSK4 were equivalent to the responses from freshly prepared biosensors. That is, there was no significant loss of performance under storage condition E (see Table 1).
Biosensors as described herein (e.g., TLR2/6 proteins immobilized onto conductive surfaces) were stored under varying conditions (see Table 1) for two weeks and then challenged by the PAMP (Pam2CSK4). As shown in FIGS. 2A-2C, a comparison was done of the responses from freshly prepared and stored biosensors were compared. Calibration curves including more concentration points are shown in FIGS. 6A-6D, where ΔRCT(%) is a normalized detection signal. ΔRCT(%)=[RCT (after exp.)−RCT (before exp.)]/RCT (before exp.), where “before exp.” refers to before exposure to analyte, and “after exp.” refers to after exposure to the analyte.
Three storage temperatures were selected, 4° C., −33° C., and −80° C. Ionic salt solutions are commonly used to maintain protein folding and stability, thus, to preserve the biosensor during storage, varying buffer solutions were used.
Batch B biosensors were stored in PBS buffer of pH˜7.4 at 4° C.
The storage conditions for Batch C was −33° C. in 50% v/v PBS buffer at pH ˜7.4 and glycerol. The storage conditions for Batch D was −33° C. in 50% v/v Tris buffer pH ˜7.7 and glycerol. […] However, the activity was reduced down to 30% in comparison to control.
The storage conditions for Batch E was −80° C. in PBS buffer at pH ˜7.4.
Batch F biosensors were stored at −80° C. in the absence of any buffer solution.
Batch G biosensors were disposed in a buffer solution that included amino acids. Specifically, Batch G buffer solution included 50 mM L-Arg, 50 mM L-Glu, 1 M NaCl and 200 mM imidazole in 50 mM Tris-HCl (pH˜8.0). The solution surrounded each biosensor in Batch G and they were kept at 4° C.
Different concentrations of Pam2CSK4 were used to trigger the responses. These concentrations were 0.1 μM for FIG. 2A; 1.0 μM for FIG. 2B; and 50 μM for FIG. 2C.

Substance: lipopolysaccharide [Salmonella LPS]
- electrochemical response (ΔRct %) ([1]; LPS from 0.1 to 63.6 μg/ml, any concentration): ≤ 40%

Substance: Pam2CSK4
- peak current (cyclic voltammogram) after exposure [2]: 96 μA
- electrochemical response (ΔRct %) ([1]; 0.1 μM analyte, fresh biosensors, 4 replicates): 24±12%
- electrochemical response (ΔRct %) ([1]; 1 μM analyte, fresh biosensors, 4 replicates): 58±13%
- electrochemical response (ΔRct %) ([1]; largest concentration, FIG. 4 comparison): ~160%
- detection response ([3]; freshly prepared biosensors (column A, no storage)): 167±29%
- detection response ([3]; storage condition G: 2 weeks, 4° C., amino acid buffer pH ~8.0): 360±24%
- response after storage ([3]; Batch B: 2 weeks, PBS buffer pH ~7.4, 4° C.): no significant responses
- activity in comparison to control ([3]; Batch C: 2 weeks, 50% v/v PBS/glycerol): 30%
- activity in comparison to control ([3]; Batch D: 2 weeks, 50% v/v Tris/glycerol): 30%
- response after storage versus control biosensor ([3]; Batch E: 2 weeks, −80° C., PBS buffer pH ~7.4, all concentrations): within error of the control biosensor
- response after storage ([3]; Batch F: 2 weeks, −80° C., no buffer solution): lost most of their response
